In patent publication US11192863B2, “Antiviral compounds and methods” (Biotron Limited, priority 2003, dated 2021):
Where “and” joins values, the source holds several entries; their conditions need not be identical. Equal values may be shown once. Where a name gives a salt, the structure may show the parent alone. Read-outs that look alike come from different tables or passages of the source.

Legend:
[1] = molecular target: SARS-CoV E protein (Severe acute respiratory syndrome coronavirus, UniProt P59637); type: cell-based
[2] = molecular target: Vpu protein (Human immunodeficiency virus type 1 group M subtype B, UniProt P05919); settings: halo of growth score between zero and six; XL1-blue E. coli with pPL-Vpu, no adenine, 37° C.
[3] = test system: MHV (strain MHV-A59); settings: L929 cells
[4] = molecular target: 229E-CoV E-protein (Human coronavirus 229E, UniProt P19741); test: Bacterial bio-assay for 229E-CoV E-protein; settings: halo of growth score; E. coli expressing E protein at 37° C.

| Compound | SARS E protein Inhibition (score/# of times tested) [1] | Vpu Inhibition (score/# of times tested) [2] | Percent reduction in Plaque number/# experiments ([3]; 1 uM) | Percent reduction in Plaque number/# experiments ([3]; 10 uM) | Percent reduction in Plaque number/# experiments ([3]; 20 uM) | 229E E protein Inhibition (score) [4] [score] | Toxic (noted in place of plaque reduction) ([3]; 20 uM) |
| --- | --- | --- | --- | --- | --- | --- | --- |
| N=C(N)NC(=O)/C=C/c1cccc(Cl)c1 [(3-Chlorocinnamoyl)guanidine] | 3.87/3 score | 4.38/4 score | 39/2% | 86/2% | 94/1% | 0.8 | – |
| N=C(N)NC(=O)COc1ccc(Cl)cc1 [[(4-Chlorophenoxy-acetyl]guanidine, (4-Chlorophenoxy-acetyl)guanidine] | 0.19/2 score | 0.56/2 score | 0/1% | 16/1% | 19/1% | – | – |
| N/C(=N\C(=O)/C=C/c1ccccc1)NC(=O)c1ccccc1 [N-Benzoyl-N′-cinnamoylguanidine] | 0.13/2 score | 0.06/2 score | 14/1% | 0/1% | 0/1% | – | – |
| Cc1cc(C)c(/C=C/C(=O)NC(=N)N)c(C)c1 [2,4,6-trimethylcinnamoylguanidine] | – | 1.4/2 score | 27/2% | 61/3% | 91/2% | 0.9 | – |
| NC(N)=NC(=O)c1ccc2cc(C(=O)N=C(N)N)ccc2c1 [N,N′-Bis(amidino)napthalene-2,6-dicarboxamide] | 0.25/2 score | – | 0/1% | 16/1% | 19/1% | 0.3 | – |
| NC(N)=NC(=O)c1nc(I)c(N)nc1N [6-Iodoamiloride] | 1.75/2 score | – | 0/1% | 21/1% | 28/1% | – | – |
| N/C(=N\C(=O)c1nc(Cl)c(N)nc1N)Nc1ccccc1 [Phenamil methanesulfonate salt, N-(3,5-Diamino-6-chloro-pyrazine-2-carbonyl)-N′-phenylguanidine] | 0.13/2 score | 0.9/5 score | – | – | – | – | – |
| COc1cc(/C=C/C(=O)NC(=N)N)cc(OC)c1OC [3,4,5-trimethoxycinnamoylguanidine] | 2.25/1 score | – | 21/1% | 84/1% | 84/1% | 0.1 | – |
| N=C(N)NC(=O)/C=C/c1ccccc1-c1ccccc1 [2-phenylcinnamoylguanidine] | – | 2.1/2 score | 42/1% | 100/1% | – | 3.0 | – |
| CCN(c1nc(N)c(C(=O)N=C(N)N)nc1Cl)C(C)C [5-(N-Ethyl-N-isopropyl)amiloride, 5-(N-ethyl-N-isopropyl)amiloride] | 1.07/2 score | 0.6/3 score | – | – | – | – | – |
| COc1nc(N2CCCCCC2)c(Cl)nc1C(=O)N=C(N)N [3-methoxy-HMA, 3-methoxy-5-(N,N-Hexamethylene)-amiloride] | 1.25/1 score | 0.2/4 score | 35/1% | 31/1% | 15/1% | – | – |
| N=C(N)NC(=O)CCc1ccccc1 [(3-phenylpropanoyl)guanidine] | 0.73/5 score | 0.2/4 score | 0/1% | 03/1% | 51/1% | – | – |
| CC(C)c1cccc(/C=C/C(=O)NC(=N)N)c1.Cl [3-isopropylcinnamoylguanidine hydrochloride] | – | 2.6/2 score | 32/1% | 99/2% | – | 4.0 | – |
| N=C(NC(=O)/C=C/c1ccccc1)Nc1ccccc1 [N-(cinnamoyl)-N′phenylguanidine, N-(cinnamoyl)-N′-phenylguanidine] | 1.19/2 score | 1.25/3 score | 13/1% | 88/1% | 83/1% | – | – |
| CCOc1cccc(/C=C/C(=O)NC(=N)N)c1 [3-ethoxycinnamoylguanidine] | – | 1.9/2 score | 58/1% | 89/2% | 100/1% | 0.3 | – |
| N/C(=N/C(=O)c1ccc2ccccc2c1)Nc1ccccc1 [N-(2-napthoyl)-N′-phenylguanidine] | 0.07/2 score | – | – | – | – | – | – |
| NC(N)=NC(=O)c1ccc2ccccc2n1 [(Quinoline-2-carbonyl)guanidine] | 0.41/1 score | – | 12/1% | 84/1% | 86/1% | – | – |
| CC(C)CN(C)c1nc(N)c(C(=O)N=C(N)N)nc1Cl [5-(N-Methyl-N-isobutyl)amiloride, 5-(N-methyl-N-isobutyl)amiloride] | 3.13/2 score | 0.8/2 score | 44/2% | 85/1% | 92/1% | – | – |
| N=C(N)NC(=O)c1ccc2ccccc2c1Br [1-bromo-2-napthoylguanidine] | 0.25/1 score | 0.06/2 score | 27/1% | 27/2% | 31/1% | – | – |
| N=C(N)NC(=O)/C=C/c1cccnc1 [[3-(3-Pyridyl)acryloyl]guanidine] | 0.67/3 score | – | 21/2% | 73/2% | 81/2% | – | – |
| N/C(=N\C(=O)c1nc(Cl)c(N)nc1N)NCc1ccccc1 [Benzamil hydrochloride, N-Benzyl-N′-(3,5-diamino-6-chloro-pyrzine-2-carbonyl)-guanidine] | 1.32/2 score | 0.9/3 score | 0/1% | 26/1% | 0/1% | – | – |
| N=C(N)NC(=O)c1ccc2cc(Br)ccc2c1 [6-bromo-2-napthoylguanidine] | 0.25/1 score | – | 19/1% | 43/1% and 37/2% | 65/1% | – | – |
| CC(C)(C)c1ccc(/C=C/C(=O)NC(=N)N)cc1 [4-t-butylcinnamoylguanidine] | 4.00/1 score | 0.19/2 score | – | – | – | 4.0 | – |
| N=C(N)NC(=O)/C=C/c1c(F)cccc1Cl [2-chloro-6-fluorocinnamoylguanidine] | 0.25/1 score | – | 9/1% | 84/2% | 100/1% | – | – |
| N=C(N)NC(=O)/C=C/c1ccoc1 [trans-3-Furanacryoylguanidine, trans-3-furanacryoylguanidine] | 0.88/2 score | 0.38/2 score | 48/1% | 65/1% | 70/1% | – | – |
| Cc1cccc(/C=C/C(=O)NC(=N)N)c1C [2,3-dimethylcinnamoylguanidine] | – | 3.1/2 score | 34/1% | 79/2% | 95/1% | 0.5 | – |
| N=C(N)NC(=O)/C=C/c1ccc2c(c1)OCO2 [3,4-(methylenedioxy)cinnamoylguanidine] | 1.25/1 score | 1.88/2 score | 45/3% | 82/3% | 93/3% | – | – |
| NC(N)=NC(=O)c1nc(-c2ccccc2)c(N2CCCCCC2)nc1N [N-amidino-3-amino-5-hexamethyleneimino-6-phenyl-2-pyrazinecarboxamide] | – | 0.6/2 score | 48/1% | 52/2% | 84/1% | – | – |
| N=C(N)NC(=O)/C=C/c1ccc(F)c(F)c1 [3,4-difluorocinnamoylguanidine] | – | 2.06/2 score | 50/1% | 91/2% | – | 0.4 | Toxic |
| N=C(N)NC(=O)Cc1ccccc1 [(Phenylacetyl)guanidine] | 0.32/3 score | – | 3/1% | 22/1% | 35/1% | – | – |
